Results on three compounds are retold here after ChEMBL document CHEMBL1144406 (J Med Chem, 2005).

Where only a bound is given, the exact number is not on record here.

Test [1] addresses T1, Prostaglandin D2 receptor (Homo sapiens, UniProt Q13258).
T1 sequence (Q13258 whole entry): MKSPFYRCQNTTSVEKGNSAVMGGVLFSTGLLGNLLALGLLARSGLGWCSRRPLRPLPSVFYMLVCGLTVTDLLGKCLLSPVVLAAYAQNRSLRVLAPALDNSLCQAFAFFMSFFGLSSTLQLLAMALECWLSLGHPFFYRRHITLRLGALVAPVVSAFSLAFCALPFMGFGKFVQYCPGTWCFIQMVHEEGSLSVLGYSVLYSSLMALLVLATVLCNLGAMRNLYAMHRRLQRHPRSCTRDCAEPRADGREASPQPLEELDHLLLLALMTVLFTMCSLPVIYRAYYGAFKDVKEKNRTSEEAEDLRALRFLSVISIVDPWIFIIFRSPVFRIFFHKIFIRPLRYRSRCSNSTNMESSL
Kind of test: Inhibition of [3H]-PGD-2 binding to human Prostaglandin D2 receptor.

Test [2] has as its target T2, Thromboxane A2 receptor (Homo sapiens, UniProt P21731).
T2 sequence (P21731 whole entry): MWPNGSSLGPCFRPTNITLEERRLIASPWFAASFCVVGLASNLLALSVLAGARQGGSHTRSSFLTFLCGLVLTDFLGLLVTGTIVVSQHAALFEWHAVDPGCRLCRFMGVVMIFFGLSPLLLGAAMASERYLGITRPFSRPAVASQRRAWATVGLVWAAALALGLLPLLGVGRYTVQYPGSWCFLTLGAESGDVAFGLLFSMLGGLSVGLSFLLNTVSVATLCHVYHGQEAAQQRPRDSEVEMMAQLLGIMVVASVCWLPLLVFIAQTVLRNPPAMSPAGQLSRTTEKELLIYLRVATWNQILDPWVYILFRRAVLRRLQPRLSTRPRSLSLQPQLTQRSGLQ
The test can be described thus: Inhibition of U-46,619-induced inositol phosphate accumulation at human Thromboxane A2 receptor. It counts as functional.

Test [3] concerns the target T1, Prostaglandin D2 receptor. Kind of test: Inhibition of PGD2-induced inositol phosphate formation at human Prostaglandin D2 receptor. It counts as functional.
The target in test [4] is T2, Thromboxane A2 receptor. The test can be described thus: Inhibition of [3H]SQ-29,548 binding to human Thromboxane A2 receptor.
Test [5] concerns the target T3, Prostaglandin D2 receptor 2 (Homo sapiens, UniProt Q9Y5Y4).
T3 sequence (Q9Y5Y4 whole entry): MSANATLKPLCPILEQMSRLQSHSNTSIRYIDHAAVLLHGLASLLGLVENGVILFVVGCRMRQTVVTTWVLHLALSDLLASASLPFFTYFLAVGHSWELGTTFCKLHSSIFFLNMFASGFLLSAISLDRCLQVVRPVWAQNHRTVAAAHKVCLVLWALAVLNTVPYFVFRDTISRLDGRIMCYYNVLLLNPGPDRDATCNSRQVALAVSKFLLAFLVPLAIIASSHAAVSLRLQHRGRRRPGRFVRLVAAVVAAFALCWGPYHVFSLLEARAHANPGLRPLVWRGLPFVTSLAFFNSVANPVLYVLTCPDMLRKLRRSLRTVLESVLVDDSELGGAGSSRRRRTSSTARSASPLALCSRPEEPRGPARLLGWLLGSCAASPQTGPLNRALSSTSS
The test can be described thus: Inhibition of [3H]PGD-2 binding to human chemoattractant receptor-homologous molecule expressed on Th2 cells (CRTH2). It counts as cell-based.

Test [6] has as its target T2, Thromboxane A2 receptor. The test can be described thus: Inhibition of beta-arrestin translocation at human Thromboxane A2 receptor in BRET assay. The test is classed as functional.
The target in test [7] is T3, Prostaglandin D2 receptor 2. The test can be described thus: Inhibition of beta-arrestin translocation at human chemoattractant receptor-homologous molecule expressed on TH2 cells in BRET assay. The test is classed as functional, cell-based.
Test [8] shares this target. Kind of test: Inhibition of PGD2-induced inositol phosphate formation at human chemoattractant receptor-homologous molecule expressed on TH2 cells. The test is classed as functional, cell-based.

Turning to `O=C(O)CCn1c2c(c3ccccc31)C[C@H](NS(=O)(=O)c1ccc(F)cc1)CC2` [RAMATROBAN], the results for the Ki in test [1], in test [4] and in test [5] were above 10 µM, 0.0045 µM and 0.0043 µM, respectively. Also, the IC50 in test [2] is 0.0096 µM; in test [3], above 10 µM; in test [6], 0.0084 µM; in test [7], 0.028 µM; in test [8], 0.029 µM.

For the compound `CN([C@@H]1CCc2c(c3ccccc3n2CCC(=O)O)C1)S(=O)(=O)c1ccc(F)cc1`, the Ki in test [1] came out at 6.1 µM; in test [4] it was 3 µM; in test [5], 0.0019 µM. Besides, the half-maximal inhibitory concentration (IC50) is 4.6 µM in test [2], above 10 µM in test [3], 0.015 µM in test [7] and 0.026 µM in test [8].

`O=C(O)Cn1c2c(c3ccccc31)C[C@H](NS(=O)(=O)c1ccc(F)cc1)CC2`: the figures for the Ki in test [1], in test [4] and in test [5] were 5.3 µM, 0.54 µM and 0.00051 µM, respectively. Further, the IC50 was 1.7 µM in test [2], above 10 µM in test [3], 0.0038 µM in test [7] and 0.0038 µM in test [8].
